Test results published in the supplement of paper PMC10307832.

Key:
Assay in all cases: relative viability (nuclei count vs DMSO), 5 days (fraction); higher = more cells survive
[1] = compound: COC1=CC=C(C=C1)CN2C=CC3=C2C=C(C=C3)C(=O)NO + CC(=O)c1c(C)c2cnc(Nc3ccc(N4CCNCC4)cn3)nc2n(C2CCCC2)c1=O [Palbociclib] (partner 0.5 µM)
Method in brief: (§1)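 Dosing by pin tool came one day after lung cancer cell lines were seeded in 1536-well plates, using either one drug or a fixed anchor-drug dose plus five library-drug doses (not always all listed) in √10 steps. After 5 days, nuclei were counted on 4× images. Relative viability is treated-well nuclei count divided by vehicle-well nuclei count, and values are medians of duplicate plates.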

[2] = compound: COC1=CC=C(C=C1)CN2C=CC3=C2C=C(C=C3)C(=O)NO + CC1(C)CCC(c2ccc(Cl)cc2)=C(CN2CCN(c3ccc(C(=O)NS(=O)(=O)c4ccc(N[C@H](CCN5CCOCC5)CSc5ccccc5)c(S(=O)(=O)C(F)(F)F)c4)cc3)CC2)C1 [Navitoclax] (partner 0.5 µM)
Method in brief: as §1

Veliparib + Crizotinib = compound: C[C@]1(c2nc3c(C(N)=O)cccc3[nH]2)CCCN1 [Veliparib] + C[C@@H](Oc1cc(-c2cnn(C3CCNCC3)c2)cnc1N)c1c(Cl)ccc(F)c1Cl [Crizotinib] (partner 1 µM)
Method in brief: as §1

Veliparib + Linsitinib = compound: C[C@]1(c2nc3c(C(N)=O)cccc3[nH]2)CCCN1 [Veliparib] + C[C@]1(O)C[C@@H](c2nc(-c3ccc4ccc(-c5ccccc5)nc4c3)c3c(N)nccn32)C1 [Linsitinib] (partner 1 µM)
Method in brief: as §1

Cell Line	relative viability ([1]; first compound 0.08 µM)	relative viability ([1]; first compound 0.253 µM)	relative viability ([1]; first compound 0.8 µM)	relative viability ([1]; first compound 2.53 µM)	relative viability ([1]; first compound 8 µM)	relative viability ([2]; first compound 0.08 µM)	relative viability ([2]; first compound 0.253 µM)	relative viability ([2]; first compound 0.8 µM)	relative viability ([2]; first compound 2.53 µM)	relative viability ([2]; first compound 8 µM)	relative viability (Veliparib + Crizotinib; first compound 0.02 µM)	relative viability (Veliparib + Crizotinib; first compound 0.06325 µM)	relative viability (Veliparib + Crizotinib; first compound 0.2 µM)	relative viability (Veliparib + Crizotinib; first compound 0.6325 µM)	relative viability (Veliparib + Crizotinib; first compound 2 µM)	relative viability (Veliparib + Linsitinib; first compound 0.02 µM)	relative viability (Veliparib + Linsitinib; first compound 0.06325 µM)	relative viability (Veliparib + Linsitinib; first compound 0.2 µM)	relative viability (Veliparib + Linsitinib; first compound 0.6325 µM)	relative viability (Veliparib + Linsitinib; first compound 2 µM)
NCI-H1975	0.347	0.627	0.604	0.665	0.537	0.979	1.17	1.26	1.06	1.16	0.964	1.12	0.977	0.93	0.89	0.933	0.951	1.03	0.88	0.931
NCI-H1993	0.586	1.12	0.749	0.714	0.593	0.68	1.02	1.04	1.09	0.991	0.836	0.822	0.815	0.787	0.771	0.7	0.683	0.738	0.7	0.726
NCI-H2009	0.211	0.215	0.243	0.226	0.162	1.23	1.19	1.13	1.18	1.13	1.1	0.934	1.05	1.03	1.03	1.27	1.17	1.16	1.14	1.22
NCI-H2023	0.36	0.355	0.433	0.359	0.365	0.94	1.07	0.946	0.994	0.98	0.567	0.616	0.635	0.567	0.601	0.712	0.692	0.677	0.538	0.658
NCI-H2085	0.492	0.452	0.495	0.464	0.538	0.891	1.04	1.19	1.01	1.08	0.9	0.805	0.702	0.738	0.809	0.929	0.871	0.854	0.779	0.965
NCI-H2087	0.261	0.226	0.259	0.28	0.164	0.974	1.03	1.13	1.08	0.856	0.729	0.722	0.831	0.806	0.61	1.01	0.903	1.02	0.898	0.999
